Data on 1 molecule can be found in patent US11007206B2, “Cyclic boronic acid ester derivatives and therapeutic uses thereof” (Melinta Subsidiary Corp., priority 2012, dated 2021).

≈ marks a conversion by molar mass, not a printed value. Like-named read-outs stand apart in the source and are kept apart here. A value given as a limit tells only on which side of the number the result lay.

For assay [1], the system named is carbapenem-resistant, KPC-producing K. pneumoniae. Briefly: Mouse model of thigh infection, Biapenem +/- Compound I (Example 6). It is filed as in vivo. The settings on record: IP 50 mpk Biapenem +/- 50 mpk Compound I every two hours for 24 hours. How it is done:
Example 6 provides the in vivo efficacy study of the carbapenem Biapenem in combination with Compound I in mouse models of pulmonary and thigh infection due to the carbapenem-resistant, KPC-producing K. pneumoniae.
Four K. pneumoniae strains with Biapenem MICs ranging between 0.25-64 mg/L were used. Neutropenic mice were infected with ˜10^5 CFU/lung or ˜10^6 CFU/thigh. Intraperitoneal treatments with 50 mpk Biapenem+/−50 mpk Compound I were initiated 2 hours post-infection as a single dose or continued every two hours for 24 hours. Mice were sacrificed on designated time points and colony counts in tissue determined.

The test system of the next assay is K. pneumoniae strains. Briefly: Biapenem MICs of the K. pneumoniae strains used in the infection models (Example 6). The format is cell-based. The settings on record: Klebsiella pneumoniae.

In the case of `C[C@@H](O)[C@H]1C(=O)N2C(C(=O)[O-])=C(SC3Cn4cnc[n+]4C3)[C@H](C)[C@H]12` (stereo partly shown) [Biapenem], the “Change in Log CFU/thigh ± SD @ 24 h” value in assay [1] (strain ATCC 43816, neutropenic mice) is listed as −1.09 ± 0.30 Log CFU/thigh; in assay [1] (strain KP1004, neutropenic mice), “+0.71 ± 0.10 Log CFU/thigh”; in assay [1] (strain KP1061, neutropenic mice) it was “+1.67 ± 0.09 Log CFU/thigh”; in assay [1] (strain KP1074, neutropenic mice) it was “+0.98 ± 0.46 Log CFU/thigh”. The MIC in the assay on K. pneumoniae strains (ATCC43816, K. pneumoniae strain ATCC 43816, read-out: Biapenem MIC Alone) is 0.25 µg/mL (≈ 0.713 µM); with K. pneumoniae strains (ATCC43816, K. pneumoniae strain ATCC 43816, with Compound I 5 μg/mL, read-out: Biapenem MIC with Compound I (5 μg/mL)) it was 0.25 µg/mL (≈ 0.713 µM); in the assay with K. pneumoniae strains (K. pneumoniae strain KP1004, read-out: Biapenem MIC Alone), 16 µg/mL (≈ 45.7 µM); with K. pneumoniae strains (K. pneumoniae strain KP1004, with Compound I 5 μg/mL, read-out: Biapenem MIC with Compound I (5 μg/mL)) it was at most 0.06 µg/mL; in the assay with K. pneumoniae strains (K. pneumoniae strain KP1061, read-out: Biapenem MIC Alone) it was 32 µg/mL (≈ 91.3 µM); with K. pneumoniae strains (K. pneumoniae strain KP1061, with Compound I 5 μg/mL, read-out: Biapenem MIC with Compound I (5 μg/mL)), at most 0.06 µg/mL. In addition, the MIC with K. pneumoniae strains (K. pneumoniae strain KP1074, read-out: Biapenem MIC Alone) was 64 µg/mL (≈ 183 µM); in the assay with K. pneumoniae strains (K. pneumoniae strain KP1074, with Compound I 5 μg/mL, read-out: Biapenem MIC with Compound I (5 μg/mL)), 0.25 µg/mL (≈ 0.713 µM); in the assay with K. pneumoniae strains (four K. pneumoniae strains used in the infection models, read-out: Biapenem MICs), 0.25 to 64 µg/mL (≈ 0.713 to 183 µM).
